Assay results from PMC5614690, “Peptide translocation across MOMP, the major outer membrane channel from Campylobacter jejuni” (Biochemistry and Biophysics Reports, 2017).

How the values were obtained:
MOMP channel = experiment: Single-channel ion-current measurement of MOMP in planar lipid bilayer (peptide binding and translocation); parameters: species or system Campylobacter jejuni (strain 85 H); details: for ion-current blockage of MOMP monomer: 3 µM peptide, +125 mV; for kon (association rate) / koff (dissociation rate): 10 µM peptide, single MOMP monomer (MOMP cis); for kon (association rate): DPhPC bilayer; for Ka (equilibrium binding constant): Ka = kon/koff; for on-rate (range given): Penta- and Hepta-arginine together; for koff (dissociation rate): koff = 1/τ; for association rate kon as a function of applied voltage: +150 to +250 mV, Penta- vs Hepta-arginine, Fig. 3A; for translocation across MOMP: concluded from voltage dependence of ion-current fluctuations; for residence time, cis vs trans peptide addition / frequency of binding events, cis vs trans peptide addition: control: peptide on cis (ground) side; for residence time, cis vs trans peptide addition: –125 to –250 mV; for frequency of binding events, cis vs trans peptide addition: –150 and –250 mV; for threshold potential for successful translocation: peptide trans, MOMP cis
Method: The planar lipid bilayer was formed using solvent free lipid bilayer technique, [29]. In brief, the cuvettes used for our bilayer experiments consist of cis (electrical ground and side of protein addition if not otherwise indicated) and trans chambers separated by a 25 µm thick Teflon film (Goodfellow, Cambridge, UK) carrying an aperture with a diameter of 40–70 µm. Prior to forming a lipid bilayer, the aperture is pre-painted with 1 μl of 1% hexadexane in hexane. 5% solution of DPhPC in hexane is commonly used as lipid stock. The chambers are filled with electrolyte solution which typically consists of 1 M KCl, 10 mM MES, pH 6.0 with a total solution volume of 2.5 ml. On top of the aqueous phase about 1 μl of the lipid stock solution is placed. After 10 min allowing for evaporation of solvent, the membrane is formed by raising and lowering the water level. To investigate the outer membrane protein of C. jejuni, MOMP was added to the cis (ground) side of the chamber to a final concentration of 5 ng/ml and the channel insertion was facilitated by rapid mixing of the content of the chamber while applying a transmembrane potential of −199 mV. Electrical recordings were made through a pair of Ag/AgCl electrodes (World Precision Instruments, Sarasota, FL, USA), attached to an Axon Instruments 200B amplifier (Axon Instruments Inc., Sunnyvale, CA, USA) in the voltage clamp mode. Data were filtered by a low pass Bessel filter at 10 kHz and directly saved into the computer memory with a sampling frequency of 50 kHz. Data analysis was performed using Clampfit software of version 10.4 (Axon Instruments Inc., Sunnyvale, CA, USA). To obtain quantitative information on the interaction of peptides with the channel we assume that peptide binding or penetration to the channel cause sufficiently strong reduction of the ion-current compared to the typical background noise. […] This is even more pronounced for longer peptides (Fig. 1C and D).
Fig. 1 Typical ion-conductance traces of monomeric MOMP in presence of poly-arginines at +125 mV. A. In the absence of peptides; B. 3 µM of Tri-arginine; C. […] Experimental conditions: 1 M KCl, 10 mM MES, pH 6.0, T= 20 °C. The peptide is added to the trans compartment of the cuvette corresponding to the electrode at positive voltage. For the sake of clarity the traces were filtered at 5 kHz. MOMP is added on the cis (ground) side (n = 4).
For further analysis we should note that in our experiment we work under dilute concentrations and thus, the number of entries is in good approximation proportional to the concentration of the peptides in solution. The on-rate kon (association rate) is obtained by counting the number of ion-current blockage events per time n [s^−1] divided by the concentration [c] of the peptide, [26], [29], [30]. Furthermore, in some cases we have trimeric MOMP and the ion-current blockages may originate independently from one of the three monomers. kon=n/3[c]
On the other hand the opening is a statistical event and correlated to the strength of the binding. A channel which is closed at t = 0 will have the probability R(t) to open at time t. Within the above described simple binding model an exponential function R(t) = e^-t/τ. Fitting the life-time distribution of a closed channel by an exponential parameter τ (or dwell time) yields the off-rate (dissociation rate) koff = 1/τ [30]. The equilibrium binding constant Ka [M^−1] of the peptide to the channel is given by the ratio of the rates Ka = kon/koff.
Fig. 2 Analysis of the ion-current fluctuations. A. Hepta-arginine concentration dependence of binding events; data were analysed at applied voltages, +150 and +250 mV; and B. Frequency of binding events of the peptide (10 µM) vs. applied transmembrane potential. Experimental conditions: 1 M KCl, 10 mM MES, pH 6.0, T= 20 °C. MOMP is added on the cis (ground) side (n = 4).
A. Voltage dependence of the on-rate; and B. off-rate. […]

Nocardia channel = details: ref [25]; cited from earlier work
Description: Binding and translocation can be distinguished using the voltage dependency of the association and disassociation rates. If the time spent by a charged molecule inside the channel increases with increasing voltage, we conclude that the molecule is pulled inside on one side of the channel without being translocated. On the other hand, if the residence time decreases with increasing voltage we conclude that the molecule is able to follow the electric field gradient leaving faster to the other side. In the case of Hepta-arginine, the residence time increased from ~100 to 410 µs with increa ...

[1] = trans side, 1 M KCl, 10 mM MES, pH 6.0, 20 °C, n = 4
[2] = +150 mV, trans side, 1 M KCl, 10 mM MES, pH 6.0, 20 °C, n = 4
[3] = +150 mV, 1 M KCl, 10 mM MES, pH 6.0, 20 °C
[4] = +150 mV, 10 µM, trans side, 1 M KCl, 10 mM MES, pH 6.0, 20 °C
[5] = +175 mV, trans side, 1 M KCl, 10 mM MES, pH 6.0, 20 °C, n = 4
[6] = +175 mV, 1 M KCl, 10 mM MES, pH 6.0, 20 °C
[7] = +250 mV, trans side, 1 M KCl, 10 mM MES, pH 6.0, 20 °C, n = 4
[8] = +250 mV, 1 M KCl, 10 mM MES, pH 6.0, 20 °C
[9] = 1 M KCl, 10 mM MES, pH 6.0, 20 °C

Substance | strength of channel–peptide interaction (order) (MOMP channel) | ion-current blockage of MOMP monomer (MOMP channel; [1]) | kon (association rate) (MOMP channel; [2]) | Ka (equilibrium binding constant) (MOMP channel; [3]) | on-rate (range given) (MOMP channel; [4]) | koff (dissociation rate) (MOMP channel; [2]) | association rate kon as a function of applied voltage (MOMP channel) | kon (association rate) (MOMP channel; [5]) | Ka (equilibrium binding constant) (MOMP channel; [6]) | koff (dissociation rate) (MOMP channel; [5]) | kon (association rate) (MOMP channel; [7]) | Ka (equilibrium binding constant) (MOMP channel; [8]) | koff (dissociation rate) (MOMP channel; [7]) | translocation across MOMP (MOMP channel) | residence time, cis vs trans peptide addition (MOMP channel; n = 4) | frequency of binding events, cis vs trans peptide addition (MOMP channel; n = 4) | threshold potential for successful translocation (MOMP channel; [9]) | voltage for pulling peptide through Nocardia channel (Nocardia channel) | other results
H-RRRRR-OH [Penta-arginine, H-RRRRR-OH trifluoroacetate salt, Mw: 0.798 kDa, from Bachem AG] | Hepta-arginine > Penta-arginine > Tri-arginine | complete monomer blockage | 12.9 ± 1.2 (M^−1 s^−1) × 10^6 | 2.0 ± 0.5 (M^−1) × 10^3 | 13 ± 2 10^6 M^−1 s^−1 | 6.2 ± 0.3 (s^−1) × 10^3 | almost identical increasing values | 20.4 ± 1.2 (M^−1 s^−1) × 10^6 | 4.1 ± 0.3 (M^−1) × 10^3 | 5.0 ± 0.6 (s^−1) × 10^3 | 34.7 ± 0.8 (M^−1 s^−1) × 10^6 | 3.3 ± 0.2 (M^−1) × 10^3 | 10.3 ± 0.8 (s^−1) × 10^3 | translocate across the MOMP channel | did not reveal significant differences | did not reveal significant differences | +175 mV | > –175 mV | koff relative to Hepta-arginine (MOMP channel; Fig. 3B, 10 µM, trans side): about twice higher off-rates; permeation vs voltage (MOMP channel; increasing voltages): permeated faster with increasing voltages
H-RRRRRRR-OH [Hepta-arginine, H-RRRRRRR-OH trifluoro acetate salt, Mw: 1.111 kDa, from Bachem AG] | Hepta-arginine > Penta-arginine > Tri-arginine | complete monomer blockage | 14.5 ± 1.5 (M^−1 s^−1) × 10^6 | 4.4 ± 0.3 (M^−1) × 10^3 | 13 ± 2 10^6 M^−1 s^−1 | 3.2 ± 0.1 (s^−1) × 10^3 | almost identical increasing values | 22.2 ± 0.8 (M^−1 s^−1) × 10^6 | 8.5 ± 0.2 (M^−1) × 10^3 | 2.6 ± 0.3 (s^−1) × 10^3 | 39.1 ± 0.5 (M^−1 s^−1) × 10^6 | 7.7 ± 0.3 (M^−1) × 10^3 | 5.0 ± 0.8 (s^−1) × 10^3 | translocate across the MOMP channel | did not reveal significant differences | did not reveal significant differences | +175 mV | > −150 mV | number of binding events vs peptide concentration (MOMP channel; 1 to 10 µM, +150 and +250 mV, n = 4): the number of binding events increased with the concentration of the peptide; binding vs translocation, low voltage (MOMP channel; +125 to +175 mV, 10 µM): binds to channel without being translocated; reduction in residence time with voltage (MOMP channel; +175 to +250 mV): reduction of one-fold; binding vs translocation, high voltage (MOMP channel; +175 to +250 mV, 10 µM): successful translocation of the peptide; ion-current blockage, reverse addition (MOMP channel; peptide on cis (ground) side, MOMP on trans side, negative voltages): strong monomer blockages with negative voltages; residence time, end of decrease (MOMP channel; peptide on cis (ground) side, MOMP on trans side, –125 to –250 mV (Fig. S5), final value, 1 M KCl, 10 mM MES, pH 6.0, 20 °C, n = 4): 200 µs; residence time, start of decrease (MOMP channel; peptide on cis (ground) side, MOMP on trans side, –125 to –250 mV (Fig. S5), starting value, 1 M KCl, 10 mM MES, pH 6.0, 20 °C, n = 4): 410 µs
Tri-arginine | Hepta-arginine > Penta-arginine > Tri-arginine | visible but very short and not fully resolvable monomer blockages | – | – | – | – | – | – | – | – | – | – | – | – | – | – | – | – | residence time (MOMP channel; +125 to +250 mV, 10 µM, trans side (MOMP cis), corresponds to time resolution of the instrument, 1 M KCl, 10 mM MES, pH 6.0, 20 °C, n = 4): ~ 70 ± 5 µs
